# Assay results from patent US20260200903A1, “PHARMACEUTICAL COMPOSITION FOR AMELIORATING MALIGNANT DISEASES” (KINKI UNIVERSITY, priority 2020, published 2026).
# pIC50: −log10 of the molar value.
# Legend:
# Type in all cases: cell-based
# [1] = system: KMS-28BM cells (myeloma cell line); assay: Cell death inducing effect on KMS-28BM cells, trypan blue staining; settings: KMS-28BM (myeloma), cell viability
# Method: (§1) KMS-28BM cells (myeloma cell line) were cultured under 5% CO2 at 37° C. The culture medium used RPMI-1640 medium with 100 μg/mL penicillin, 100 U/mL streptomycin and fetal bovine serum. KMS-28BM cells were seeded into 96-well plates and incubated with each concentration of the compounds was added, and cell viability was determined by the trypan blue staining.
# (§2) For controls, only 0.5% DMSO (diluted in PBS) used to dissolve the compounds was added. For each concentration, each bar line is indicated by an arrow with the sign “n, a, 1, 2, 3, 4, 5, 6, 7, 8, 9, 10, 11, 12” from left to right. The “1, 3, 5, 7, 9, 11” are omitted from the graph, but the sign “1” shall be indicated by an arrow between the signs “a” and “2”, the sign “3” between the signs “2” and “4”, and other odd numbers shall likewise be indicated by arrows between even numbers before and after.
# (§3) The sign “n” is the norathyriol (formula (n)) administration group, the sign “a” is the mangiferin 8a (formula (a)) administration group, the sign “1” is the yk-7 (formula (1)) administration group, the sign “2” is the yk-8-1 (formula (2)) administration group, the sign “3” is the yk-8-3 (formula (3)) administration group, the sign “4” is the M7 (formula (4)) administration group, the sign “5” is the M9 (formula (5)) administration group, the sign “6” is the M11 (formula (6)) administration group, the sign “7” is the M12 (formula (7)) administration group, the sign “8” is the M14 (formula (8)) administration group, the sign “9” is the M15 (formula (9)) administration group, the sign “10” is the M16 (formula (10)) administration group, the sign “11” is the M18 (formula (11)) administration group, the sign “12” is the M19 (formula (12)) administration group, respectively. The IC50 values for each compound is also listed in the upper right corner of the figure.
# [2] = system: Rec-1 cells (mantle cell lymphoma cell line); assay: Cell death inducing effect on Rec-1 cells, trypan blue staining; settings: Rec-1 (mantle cell lymphoma), cell viability
# Method: as §1, with “Rec-1” for “KMS-28BM”, “(mantle cell lymphoma” for “(myeloma”
# as §2, §3
# [3] = system: Raji cells (burkitt lymphoma cell line); assay: Cell death inducing effect on Raji cells, trypan blue staining; settings: Raji (Burkkit lymphoma), cell viability
# Method: as §1, with “Raji” for “KMS-28BM”, “(burkitt lymphoma” for “(myeloma”
# as §2, §3
# [4] = system: RR1 cells (rituximab-resistant burkitt lymphoma cell line); assay: Cell death inducing effect on RR1 cells, trypan blue staining; settings: RR1 (Burkkit lymphoma; rituximab resistance), cell viability
# Method: Raji cells, a burkitt lymphoma cell line, were modified to be rituximab-resistant and named RR1 cells.
# RR1 cells (rituximab-resistant burkitt lymphoma cell line) were cultured under 5% CO2 at 37° C. The culture medium used RPMI-1640 medium with 100 μg/mL penicillin, 100 U/mL streptomycin and fetal bovine serum. RR-1 cells were seeded into 96-well plates and incubated with each concentration of the compounds was added, and cell viability was determined by the trypan blue staining.
# as §2, §3
# [5] = system: SU-DHL-4 cells (diffuse large B-cell lymphoma); assay: Cell death inducing effect on SU-DHL-4 cells, trypan blue staining; settings: SU-DHL-4 (DLBCL), cell viability
# Method: SU-DHL-4 cells (diffuse large B-cell lymphoma) were cultured under 5% CO2 at 37° C.
# The culture medium used RPMI-1640 medium with 100 μg/mL penicillin, 100 U/mL streptomycin and fetal bovine serum. SU-DHL-4 cells were seeded into 96-well plates and incubated with each concentration of the compounds was added, and cell viability was determined by the trypan blue staining.
# as §2, §3
# [6] = system: RPMI1788 cells (human normal B cell line); assay: Cell death inducing effect on RPMI1788 normal B cells, trypan blue staining; settings: RPMI1788 (normal B lymphocyte), cell viability
# Method: as §1, with “RPMI1788” for “KMS-28BM”, “(human normal B” for “(myeloma”
# as §2, §3
# [7] = system: CD138; assay: CD138 expression in L363 cells, flow cytometry; settings: 10 days, concentration lower than the IC50 (0.005-50 μM), compared to the positive control
# Method: (§4) As a control, compounds untreated L363 cells were seeded in 75 cm^2 flasks and incubated for 10 days at 37° C. and 5% CO2. L363 cells were seeded into 75 cm^2 flasks and pre-cultured for 4 h. After incubation, L363 cells were treated with 0.1 μM M7, 0.05 μM M9, 0.1 μM yk-7, 0.1 μM yk-8-3, 50 μM yk-8-1, 0.1 μM M11, 0.01 μM M12, 0.005 μM M14, 0.005 μM M15, 0.005 μM M16, 1 μM M18, and 1 μM M19 at final concentrations, and incubated for 10 days at 37° C. and 5% CO2. This added amount is a concentration lower than the IC50 of the above compounds for L363 cells. After 10 days of incubation, cells were stained with anti-CD138 antibody, a marker of multiple myeloma grade, and CD138 expression was measured using BD LSRFortessa.
# Results are shown in FIG. 25, FIG. 26, FIG. 27 and FIG. 28. The horizontal axis represents the expression level of CD138 and the vertical axis represents the number of cells.
# [8] = system: CD20; assay: CD20 expression in L363 cells, flow cytometry; settings: 10 days, concentration lower than the IC50 (0.005-50 μM), compared to the positive control
# Method: as §4, with “anti-CD20” for “anti-CD138”, “B cell marker,” for “marker of multiple myeloma grade,”, “CD20” for “CD138”, “LSRFortessa. CCRF-SB cells were used as CD20-positive controls.” for “LSRFortessa.”
# Results are shown in FIG. 29, FIG. 30, FIG. 31, and FIG. 32. The horizontal axis represents the expression level of CD20 and the vertical axis represents the number of cells.
Compound,pIC50 [1],"pIC50 ([2]; Homo sapiens, Rec1)",pIC50 ([3]; Homo sapiens),pIC50 [4],pIC50 ([5]; Homo sapiens),"pIC50 ([6]; Homo sapiens, RPMI-1788)",CD138 expression levels [7],CD20 expression level [8],pIC50 [2],pIC50 [3],pIC50 [5],pIC50 [6]
"CCCC(=O)OC[C@H]1O[C@@H](c2c(O)cc3oc4cc(O)c(O)cc4c(=O)c3c2OC(=O)CCC)[C@H](OC(=O)CCC)[C@@H](OC(=O)CCC)[C@@H]1OC(=O)CCC [Compound M12, 1,2′,3′,4′,6-penta-O-butyrylmangiferin]",6.68,6.02,6.18,7.82,8.30,4.12,markedly reduced,significantly increased,,,,
"CCCCC(=O)OC[C@H]1O[C@@H](c2c(OC(=O)CCCC)cc3oc4cc(OC(=O)CCCC)c(OC(=O)CCCC)cc4c(=O)c3c2OC(=O)CCCC)[C@H](OC(=O)CCCC)[C@@H](OC(=O)CCCC)[C@@H]1OC(=O)CCCC [yk-8-1, 1,3,2′,3′,4′,6,6′,7-octa-O-valerylmangiferin]",< 4.00,,,4.67,,,markedly reduced,significantly increased,< 4.00,< 4.00,< 4.00,< 4.00
